In US20160045531A1, “COMBINATION THERAPY FOR TREATING CANCER” (EPIZYME, INC., priority 2014, published 2016):

Legend:
MV4-11 (MLL-AF4) = test: Proliferation assay and calculation of synergism (Example 5), MV4-11; format: cell-based, human; details: for Combination with Compound A2, MV4-11 (MLL-AF4): 7 Day Cotreatment Model, Chou-Talalay CI; for Combination with Compound A2, pre-treatment model with washout, MV4-11: Compound A2 washed out prior to the addition of the SOC agent; for Combination with Compound A2, pre-treatment model, MV4-11: no Compound A2 washout
Experimental: (§5) MV4-11 cells were maintained in IMDM supplemented with 10% fetal bovine serum. […] They were cultured in flasks or plates in a humidified 5% CO2 atmosphere.
(§6) Proliferation studies were performed using MOLM-13, MV4-11 and SKM-1 cell lines in vitro to evaluate the cancer cell killing effect of a combination of two agents together on cell growth. Initial proliferation studies were performed to determine the IC50 values of a given compound in each cell line. The cell counts were measured by ATP quantitation using the Promega Cell Titer Glo kit and luminescence values correspond to the amount of ATP in a given well.
(§7) These studies were performed to evaluate both the combinatorial effect of compounds on cell killing and the durability of the effect by washing out one of the agents.
(§8) Compounds evaluated for synergy in the co-treatment phase were tested in a range which was bracketed around the IC50's. The compounds were plated to a 96 well plate in a matrix format which includes increasing concentrations of each drug in the combination in a constant ratio, in addition to the effect of each compound alone in the study. […] Maximum and minimum inhibition (DMSO alone) controls were used in each plate to calculate fraction affected (Fa) of a test well. DMSO concentration was kept at 0.1% v/v. The drug combination analysis was performed utilizing the Chou-Talalay method. Synergy was determined using the software package Calcusyn by Biosoft. The combination index (CI) is the term used to describe the level of synergy or antagonism in a given test system. A combination index less than one indicates synergy, and a CI greater than one indicates antagonism.
(§9) The drug combination analysis was performed using the Chou-Talalay method. Graphs representing values of combination index (CI) versus Fractional effect (Fa) known as Fa-CI plots were generated and synergy was evaluated. Drug synergy was statistically defined by CI values less than 1, antagonism by CI>1 and additive effect by CI equal to 1.

MOLM-13 (MLL-AF9) = test: Proliferation assay and calculation of synergism (Example 5), MOLM-13; format: cell-based, human; details: for Combination with Compound A2, MOLM-13 (MLL-AF9): 7 Day Cotreatment Model, Chou-Talalay CI; for Combination with Compound A2, pre-treatment model with washout, MOLM-13: Compound A2 washed out prior to the addition of the SOC agent; for Combination with Compound A2, pre-treatment model, MOLM-13: no Compound A2 washout
Experimental: as §5, §6, §7, §8, §9

[1] = test system: SKM-1 (non-MLL-rearranged AML); test: Combination proliferation study with Compound A2 (Examples 2/3), SKM-1; format: cell-based, human; details: in combination with Compound A2
Experimental: (§1) The HP-D300 digital dispenser (Tecan) was used to dispense compounds in a combinatorial matrix. […] Cell viability was measured via ATP content using CellTiter-Glo® (Promega).
(§2) Viability was determined using CellTiter-Glo® (Promega).

[2] = test system: MV4-11 (MLL-AF4) cell line; test: Combination proliferation study with Compound A2 (Example 1), MV4-11; format: cell-based, human; details: 7 Day Cotreatment; Chou-Talalay CI
Text: (§3) The acute myelogenous leukemia cell lines MV4-11 (MLL-AF4) and MOLM-13 (MLL-AF9) were obtained from American Type Culture Collection (ATCC; Rockville, Md.) and Deutsche Sammlung von Mikroorganismen and Zellkulturen (DSMZ; Braunschweig, Germany) respectively. […] Further, strong synergism is achieved when the CI value falls below 0.3.

SKM-1 cells = test: Proliferation assay and calculation of synergism (Example 5), SKM-1; details: combination with Compound A2
Text: The acute myelogenous leukemia cell line MV4-11 (MLL-AF4) (CRL-9591) was obtained from American Type Culture Collection (ATCC), Manassas, Va. and both MOLM-13 (MLL-AF9) (ACC 554) and SKM-1 (ACC 547) cells were obtained from Leibniz Institute DSMZ-German Collection of Microorganisms and Cell Cultures, Braunschweig, Germany. MV4-11 cells were maintained in IMDM supplemented with 10% fetal bovine serum. MOLM-13 and SKM-1 cells were maintained in Roswell Park Memorial Institute medium (RPMI) supplemented with 10% fetal bovine serum. They were cultured in flasks or plates in a humidified 5% CO2 atmosphere.
as §6, §7, §8, §9

[3] = test system: MOLM-13 (MLL-AF9) cell line; test: Combination proliferation study with Compound A2 (Example 1), MOLM-13; format: cell-based, human; details: 7 Day Cotreatment; Chou-Talalay CI
Text: as §3

[4] = test system: Molm-13 (MLL-AF9 expressing acute myeloid leukemia); test: Combination proliferation study with Compound A2 (Examples 2/3), MOLM-13; format: cell-based, human; details: for Combination studies with Compound A2, MOLM-13 MLL-AF9: in combination with Compound A2, Chou-Talalay CI
Experimental: as §1, §2

[5] = test system: MV4-11 (MLL-AF4 expressing acute biphenotypic leukemia cell line); test: Combination proliferation study with Compound A2 (Examples 2/3), MV4-11; format: cell-based, human; details: in combination with Compound A2; Chou-Talalay CI
Experimental: as §1, §2

MOLM-13 cells [6] = test: Flow cytometric analysis of cell cycle and Annexin V, MOLM-13; format: cell-based, human; details: MOLM-13
Experimental: (§4) On Day 0 MOLM-13 cells are seeded at 3,000 cells/mL. On Day 7 and Day 10 MOLM-13 cells are counted and reseeded at 50,000 cells/mL. […] On Day 10 They were redosed again. On Day 14 the experiment was terminated.
To evaluate the fraction of cells in each cell cycle, flow cytometric analysis was performed. FACS analysis for detection of cell death by apoptosis, and cell cycle was performed.
Samples were analyzed using the Guava EasyCyte Plus System (Millipore). Cells for cell cycle analysis were pelleted by centrifugation at 200×g for 5 minutes at 4° C., washed twice with ice cold PBS then fixed with 70% ice cold ethanol. All samples were analyzed together at end of experiment. Following fixation cells were washed with PBS and stained with the Guava cell cycle reagent (Millipore 4500-0220) for 30 minutes. Samples were analyzed using the Guava EasyCyte Plus System (Millipore).

MOLM-13 cells [7] = test: Pre-treatment model with reverse order of addition (Ara-C first), MOLM-13; format: cell-based, human; details: Ara-C 3 days
Experimental: MOLM-13 cells were pretreated with 9 concentrations of Ara-C or DMSO for 3 days.
Cell viability was measured via ATP content using CellTiter-Glo® (Promega).
In addition, the effect of sequence of addition of compounds was studied by measuring the ten day proliferation of cells pretreated with Ara-C in a 3+7 model. This experiment was performed by first pretreating MOLM-13 cells with increasing concentrations of Ara-C for 3 days.

MOLM-13 cells [8] = test: CD11b and CD14 expression by flow cytometry, MOLM-13; format: cell-based, human
Experimental: as §4
The cells were prepared by washing twice in PBS, followed by fixation in 4% formaldehyde for ten minutes at 37° C. After fixation cells were washed and blocked with blocking buffer for 10 minutes at room temperature. Cells were then incubated in presence of anti-CD14, anti-CD11b or anti-IgG antibody for 1 hour at room temperature while rotating. Cells were washed, re-suspended in PBS and 5,000 events were analyzed using ExpressPro software on the GuavaCyte Plus System.

Row | Compound | Combination with Compound A2, MV4-11 (MLL-AF4) (MV4-11 (MLL-AF4)) | Combination with Compound A2, MOLM-13 (MLL-AF9) (MOLM-13 (MLL-AF9)) | Combination studies with Compound A2, SKM-1 AML: Non-rearranged [1] | Combination effect with Compound A2 on proliferation, MV4-11 [2] | further results
1 | Nc1cccc2c1CN(C1CCC(=O)NC1=O)C2=O (stereo not drawn) [Lenalidomide, lenalidomide] | Combination Benefit | Combination Benefit | – | – | –
2 | COc1cc2c(cc1-c1c(C)noc1C)ncc1[nH]c(=O)n([C@H](C)c3ccccn3)c12 [IBET-151] | – | – | IC50 not achieved | Synergy (A combination index less than one indicates synergy) | –
3 | CC[C@]1(O)C[C@H]2CN(CCc3c([nH]c4ccccc34)[C@@](C(=O)OC)(c3cc4c(cc3OC)N(C=O)[C@H]3[C@@](O)(C(=O)OC)[C@H](OC(C)=O)[C@]5(CC)C=CCN6CC[C@]43[C@@H]65)C2)C1 [Vincristine, vincristine] | Additive (additive effect by CI equal to 1) | Additive (additive effect by CI equal to 1) | – | – | –
4 | O=C(CCCCCCC(=O)Nc1ccccc1)NO [Vorinostat] | Antagonistic (antagonism by CI>1) | Additive/Synergy | – | – | –
5 | CC(C)(C)c1cc(NC(=O)Nc2ccc(-c3cn4c(n3)sc3cc(OCCN5CCOCC5)ccc34)cc2)no1 [Quizartinib] | – | – | – | synergy | –
6 | Nc1ncn([C@@H]2O[C@H](CO)[C@@H](O)[C@H]2O)c(=O)n1 [Azacitidine, azacitidine] | – | – | No Combination | – | –
7 | Cc1[nH]c2ccccc2c1CCNCc1ccc(/C=C/C(=O)NO)cc1 [Panobinostat] | Antagonistic (antagonism by CI>1) | – | – | – | –
8 | CC(C)C[C@H](NC(=O)[C@H](Cc1ccccc1)NC(=O)c1cnccn1)B(O)O [Velcade, bortezomib] | Combination Benefit | Combination Benefit | – | – | –
9 | Nc1ncn([C@@H]2O[C@H](CO)[C@@H](O)[C@H]2O)c(=O)n1 [azacytidine, Azacytidine] | synergistic anti-proliferative activity | synergistic anti-proliferative activity | – | – | Effect of Compound A2 on the antiproliferative activity of the second agent in SKM-1 (SKM-1 cells): no impact on the antiproliferative activity
10 | CC1(C)CCC(c2ccc(Cl)cc2)=C(CN2CCN(c3ccc(C(=O)NS(=O)(=O)c4ccc(N[C@H](CCN5CCOCC5)CSc5ccccc5)c(S(=O)(=O)C(F)(F)F)c4)cc3)CC2)C1 [Navitoclax] | – | – | – | synergy | Combination effect with Compound A2 on proliferation, MOLM-13 [3]: synergy
11 | O=C1c2c(O)ccc(O)c2C(=O)c2c(NCCNCCO)ccc(NCCNCCO)c21 [Mitoxantrone] | – | – | – | Synergy (A combination index less than one indicates synergy) | –
12 | N[C@@H]1C[C@H]1c1ccccc1 (racemic) [Tranylcypromine] | – | – | – | synergy | Combination effect with Compound A2 on proliferation, MOLM-13 [3]: synergy
13 | CN(Cc1cnc2nc(N)nc(N)c2n1)c1ccc(C(=O)N[C@@H](CCC(=O)O)C(=O)O)cc1 [Methotrexate, methotrexate] | Additive (additive effect by CI equal to 1) | Antagonistic/Additive | – | – | –
14 | Cc1sc2c(c1C)C(c1ccc(Cl)cc1)=N[C@@H](CC(=O)OC(C)(C)C)c1nnc(C)n1-2 [JQ1] | Additive (additive effect by CI equal to 1) | Additive (additive effect by CI equal to 1) | – | – | –
15 | Nc1ncn([C@@H]2O[C@H](CO)[C@@H](O)[C@H]2O)c(=O)n1 [Vidaza] | – | – | – | Synergy (A combination index less than one indicates synergy) | –
16 | Nc1ccn([C@@H]2O[C@H](CO)[C@@H](O)[C@@H]2O)c(=O)n1 [cytarabine] | – | – | did not act synergistically | – | Combination with Compound A2, Compound A2 removed at day 7 ([4]; Molm-13, Compound A2 removed at day 7 prior to cytarabine): durable combination benefit; Combination studies with Compound A2, MOLM-13 MLL-AF9 [4]: acts synergistically; Combination with Compound A2, pre-treatment model with washout, MV4-11 (MV4-11 (MLL-AF4)): synergistic anti-proliferative activity was maintained; Combination with Compound A2, pre-treatment model, MV4-11 (MV4-11 (MLL-AF4)): synergistic antiproliferative activity; Effect of Compound A2 on the antiproliferative activity of the second agent in SKM-1 (SKM-1 cells): did not affect the antiproliferative activity; Combination with Compound A2, pre-treatment model with washout, MOLM-13 (MOLM-13 (MLL-AF9)): synergistic anti-proliferative activity was maintained; Combination with Compound A2, pre-treatment model, MOLM-13 (MOLM-13 (MLL-AF9)): synergistic antiproliferative activity; Combination studies with Compound A2, MV4-11 MLL-AF4 [5]: acts synergistically
17 | Nc1ncn([C@H]2C[C@H](O)[C@@H](CO)O2)c(=O)n1 [Decitabine, decitabine] | – | – | No Combination | – | –
18 | C[C@]12C=CC(=O)C=C1CC[C@@H]1[C@@H]2[C@@H](O)C[C@@]2(C)[C@H]1CC[C@]2(O)C(=O)CO [Prednisolone, prednisolone] | Antagonistic (antagonism by CI>1) | Antagonistic (antagonism by CI>1) | – | – | –
19 | COc1cccc2c1C(=O)c1c(O)c3c(c(O)c1C2=O)C[C@@](O)(C(C)=O)C[C@@H]3O[C@H]1C[C@H](N)[C@H](O)[C@H](C)O1 [Daunorubicin, daunorubicin] | – | – | No Combination | Synergy (A combination index less than one indicates synergy) | Combination studies with Compound A2, MOLM-13 MLL-AF9 [4]: acts synergistically; Combination with Compound A2, pre-treatment model with washout, MV4-11 (MV4-11 (MLL-AF4)): synergistic anti-proliferative activity was maintained; Combination with Compound A2, pre-treatment model, MV4-11 (MV4-11 (MLL-AF4)): synergistic antiproliferative activity; Combination studies with Compound A2, SKM-1 AML: Non-rearranged ([1]; listed as daunorubicin): did not act synergistically; Effect of Compound A2 on the antiproliferative activity of the second agent in SKM-1 (SKM-1 cells): did not affect the antiproliferative activity; Combination with Compound A2, pre-treatment model with washout, MOLM-13 (MOLM-13 (MLL-AF9)): synergistic anti-proliferative activity was maintained; Combination with Compound A2, pre-treatment model, MOLM-13 (MOLM-13 (MLL-AF9)): synergistic antiproliferative activity; Combination studies with Compound A2, MV4-11 MLL-AF4 [5]: acts synergistically
20 | Nc1ccn([C@@H]2O[C@H](CO)[C@@H](O)[C@@H]2O)c(=O)n1 [Ara-C, cytarabine] | Strong Synergy | – | No Combination | Synergy (A combination index less than one indicates synergy) | Apoptosis induction over 14 day course, single agent (MOLM-13 cells [6]; 156 nM Compound A2 or 63 nM Ara-C): modest increase in apoptotic cell population; Apoptosis induction over 14 day course, combination with Compound A2 (MOLM-13 cells [6]; 156 nM Compound A2 plus 63 nM Ara-C): enhance apoptosis; Sub-G1 cell population, combination with Compound A2 (MOLM-13 cells [6]; 156 nM Compound A2 plus 63 nM Ara-C, 10 and 14 days): significant increase in the population of sub-G1 cells; Sub-G1 cell population, single agent (MOLM-13 cells [6]; 14 day treatment, 156 nM Compound A2 or 63 nM Ara-C): minimal effect; Combination with Compound A2, Ara-C pretreatment then cotreatment (MOLM-13 cells [7]; then Compound A2 and Ara-C 7 days): Synergy; Combination with Compound A2, Ara-C pretreatment then washout (MOLM-13 cells [7]; washed out, then Compound A2 7 days): Combination benefit is maintained; Differentiation markers CD11b and CD14, combination with Compound A2 (MOLM-13 cells [8]): time and concentration dependent up-regulation; Differentiation markers CD11b and CD14, single agent (MOLM-13 cells [8]): time and concentration dependent up-regulation; Combination studies with Compound A2, MV4-11 MLL-AF4 [5]: Strong
